Source: ChEMBL document CHEMBL1155444, “(Bis)urea and (bis)thiourea inhibitors of lysine-specific demethylase 1 as epigenetic modulators” (J Med Chem, 2010)
The source made the active and inactive calls. The rule behind the calls is not given here.

Key:
Assay type in all cases: cell-based
Details in all cases: HCT-116
[1] = target: Lysine-specific histone demethylase 1A (Homo sapiens) (UniProt O60341); experiment: Inhibition of LSD1 in human HCT116 cells assessed as increase in cellular histone 3 dimethyllysine 4 level treated at increasing concentration after 48 hrs
[2] = target: Lysine-specific histone demethylase 1A (Homo sapiens) (UniProt O60341); experiment: Inhibition of LSD1 in human HCT116 cells assessed as increase in cellular histone 3 dimethyllysine 9 level treated at increasing concentration after 48 hrs
[3] = target: Lysine-specific histone demethylase 1A (Homo sapiens) (UniProt O60341); experiment: Inhibition of LSD1 in human HCT116 cells assessed as increase in cellular histone 3 methyllysine 4 level treated at increasing concentration after 48 hrs

SMILES	inhibition [1]	inhibition [2]	inhibition [3]
C/N=C(\NC)NCCCNCCCNCCCN/C(=N/C)NC	Active	inactive	Active
N=C(NCCCNCCCCCCCNCCCNC(=N)NC(=N)NCCC(c1ccccc1)c1ccccc1)NC(=N)NCCC(c1ccccc1)c1ccccc1	Active	inactive	Active
